Laboratory results published in the kinase profiling compilation of Christmann-Franck et al. (2016).

Assays:
Assay in all cases: radiometric filter-binding kinase assay, Kinaseprofiler
HIPK3 (human) = HIPK3 (human) (UniProt Q9H422); details: compound 10.0 µM; ATP 15 µM
CDK2 CCNA2 (human) = CDK2 CCNA2 (human) (UniProt P24941+P20248); details: ATP 45 µM
[1] = test system: FLT4 (human), P35916 [V1128L/H1146R]; details: compound 1.0 µM; ATP 200 µM
PTK2B (human) = PTK2B (human) (UniProt Q14289); details: compound 10.0 µM; ATP 90 µM
[2] = molecular target: JAK2 JH1 catalytic (human) (UniProt O60674); details: compound 10.0 µM; ATP 45 µM
CDK1 CCNB1 (human) = CDK1 CCNB1 (human) (UniProt P06493+P14635); details: compound 10.0 µM; ATP 45 µM
MAPK1 (human) = MAPK1 (human) (UniProt P28482); details: compound 10.0 µM; ATP 155 µM
TSSK2 (human) = TSSK2 (human) (UniProt Q96PF2); details: compound 10.0 µM; ATP 15 µM
STK24 (human) = STK24 (human) (UniProt Q9Y6E0); details: compound 10.0 µM; ATP 15 µM
FYN (human) = FYN (human) (UniProt P06241); details: compound 10.0 µM; ATP 70 µM
DAPK2 (human) = DAPK2 (human) (UniProt Q9UIK4); details: compound 10.0 µM; ATP 10 µM
CDK7 CCNH MNAT1 (human) = CDK7 CCNH MNAT1 (human) (UniProt P50613+P51948+P51946); details: ATP 90 µM
FLT1 (human) = FLT1 (human) (UniProt P17948); details: ATP 200 µM
CDK2 CCNE1 (human) = CDK2 CCNE1 (human) (UniProt P24941+P24864); details: ATP 120 µM
MINK1 (human) = MINK1 (human) (UniProt Q8N4C8); details: compound 1.0 µM; ATP 185 µM
FLT3 (human) = FLT3 (human) (UniProt P36888); details: compound 1.0 µM; ATP 200 µM
PIM2 (human) = PIM2 (human) (UniProt Q9P1W9); details: compound 10.0 µM; ATP 15 µM
PRKD2 (human) = PRKD2 (human) (UniProt Q9BZL6); details: compound 10.0 µM; ATP 155 µM
[3] = test system: PRKD1 (human), Q15139 [R135A]; details: compound 10.0 µM; ATP 45 µM
EPHA1 (human) = EPHA1 (human) (UniProt P21709); details: compound 10.0 µM; ATP 45 µM
BTK (human) = BTK (human) (UniProt Q06187); details: ATP 200 µM
LYN (human) = LYN (human) (UniProt P07948); details: compound 10.0 µM; ATP 70 µM
RPS6KA5 KD1 KD2 (human) = RPS6KA5 KD1 KD2 (human) (UniProt O75582); details: compound 10.0 µM; ATP 90 µM
[4] = test system: BLK (human), P51451 [M278V]; details: compound 10.0 µM; ATP 45 µM
MKNK2 (human) = MKNK2 (human) (UniProt Q9HBH9); details: ATP 120 µM
AURKB (human) = AURKB (human) (UniProt Q96GD4); details: ATP 10 µM
TSSK1B (human) = TSSK1B (human) (UniProt Q9BXA7); details: ATP 15 µM
PAK6 (human) = PAK6 (human) (UniProt Q9NQU5); details: ATP 10 µM
[5] = molecular target: JAK3 JH1 catalytic (human) (UniProt P52333); details: ATP 10 µM
IRAK1 (human) = IRAK1 (human) (UniProt P51617); details: compound 10.0 µM; ATP 45 µM
PRKCA (human) = PRKCA (human) (UniProt P17252); details: compound 10.0 µM; ATP 45 µM
ULK3 (human) = ULK3 (human) (UniProt Q6PHR2); details: compound 1.0 µM; ATP 10 µM
MELK (human) = MELK (human) (UniProt Q14680); details: compound 10.0 µM; ATP 45 µM
MAP2K7 (human) = MAP2K7 (human) (UniProt O14733); details: compound 10.0 µM; ATP 10 µM
MARK2 (human) = MARK2 (human) (UniProt Q7KZI7); details: compound 10.0 µM; ATP 15 µM
MAPK3 (human) = MAPK3 (human) (UniProt P27361); details: compound 10.0 µM; ATP 70 µM

Measured: residual activity

CDK7 CCNH MNAT1 (human), sequence (P50613 whole entry, looked up): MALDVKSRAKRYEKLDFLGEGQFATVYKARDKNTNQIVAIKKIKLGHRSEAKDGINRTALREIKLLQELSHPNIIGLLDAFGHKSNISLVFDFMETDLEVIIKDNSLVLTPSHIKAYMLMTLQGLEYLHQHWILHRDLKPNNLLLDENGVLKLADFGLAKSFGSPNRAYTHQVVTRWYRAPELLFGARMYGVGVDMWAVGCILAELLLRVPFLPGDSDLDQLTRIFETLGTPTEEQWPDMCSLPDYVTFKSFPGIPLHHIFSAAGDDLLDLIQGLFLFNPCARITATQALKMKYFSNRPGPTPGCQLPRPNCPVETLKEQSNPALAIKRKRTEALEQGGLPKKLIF
CDK7 CCNH MNAT1 (human), sequence (P51946 whole entry, looked up): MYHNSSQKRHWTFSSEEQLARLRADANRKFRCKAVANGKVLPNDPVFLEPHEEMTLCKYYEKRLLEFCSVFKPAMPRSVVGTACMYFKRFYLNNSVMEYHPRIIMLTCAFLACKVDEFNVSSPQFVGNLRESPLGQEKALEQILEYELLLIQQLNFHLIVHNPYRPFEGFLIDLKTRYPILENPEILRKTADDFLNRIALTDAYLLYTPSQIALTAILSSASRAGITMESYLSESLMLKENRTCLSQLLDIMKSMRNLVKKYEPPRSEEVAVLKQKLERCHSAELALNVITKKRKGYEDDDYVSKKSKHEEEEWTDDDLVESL
CDK7 CCNH MNAT1 (human), sequence (P51948 whole entry, looked up): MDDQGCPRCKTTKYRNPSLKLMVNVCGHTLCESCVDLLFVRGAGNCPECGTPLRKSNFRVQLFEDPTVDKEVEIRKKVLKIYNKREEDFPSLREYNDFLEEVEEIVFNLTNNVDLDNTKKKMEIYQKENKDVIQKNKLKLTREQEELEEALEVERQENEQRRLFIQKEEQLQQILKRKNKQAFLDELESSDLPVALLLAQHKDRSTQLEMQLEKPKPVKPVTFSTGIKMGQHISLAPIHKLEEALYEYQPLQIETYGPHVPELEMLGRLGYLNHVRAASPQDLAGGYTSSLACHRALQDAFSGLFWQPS
BTK (human), sequence (Q06187 whole entry, looked up): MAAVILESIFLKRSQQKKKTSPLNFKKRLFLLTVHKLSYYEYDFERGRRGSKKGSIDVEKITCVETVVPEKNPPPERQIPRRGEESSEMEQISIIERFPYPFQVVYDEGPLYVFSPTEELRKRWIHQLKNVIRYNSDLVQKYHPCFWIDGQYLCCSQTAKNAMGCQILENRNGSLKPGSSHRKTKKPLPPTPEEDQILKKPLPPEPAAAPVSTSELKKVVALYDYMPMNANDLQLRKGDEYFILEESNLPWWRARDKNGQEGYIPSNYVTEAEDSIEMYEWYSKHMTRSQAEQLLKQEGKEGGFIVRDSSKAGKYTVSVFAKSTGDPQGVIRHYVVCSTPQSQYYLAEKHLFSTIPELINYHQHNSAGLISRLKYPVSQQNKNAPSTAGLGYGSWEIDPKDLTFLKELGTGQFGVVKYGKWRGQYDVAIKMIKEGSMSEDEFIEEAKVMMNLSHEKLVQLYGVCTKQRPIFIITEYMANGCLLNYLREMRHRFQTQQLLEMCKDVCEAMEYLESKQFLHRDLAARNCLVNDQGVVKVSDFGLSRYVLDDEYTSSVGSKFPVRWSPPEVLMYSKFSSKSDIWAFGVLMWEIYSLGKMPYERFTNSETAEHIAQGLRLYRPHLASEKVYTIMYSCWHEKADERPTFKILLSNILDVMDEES
CDK2 CCNA2 (human), sequence (P20248 whole entry, looked up, other chains not shown): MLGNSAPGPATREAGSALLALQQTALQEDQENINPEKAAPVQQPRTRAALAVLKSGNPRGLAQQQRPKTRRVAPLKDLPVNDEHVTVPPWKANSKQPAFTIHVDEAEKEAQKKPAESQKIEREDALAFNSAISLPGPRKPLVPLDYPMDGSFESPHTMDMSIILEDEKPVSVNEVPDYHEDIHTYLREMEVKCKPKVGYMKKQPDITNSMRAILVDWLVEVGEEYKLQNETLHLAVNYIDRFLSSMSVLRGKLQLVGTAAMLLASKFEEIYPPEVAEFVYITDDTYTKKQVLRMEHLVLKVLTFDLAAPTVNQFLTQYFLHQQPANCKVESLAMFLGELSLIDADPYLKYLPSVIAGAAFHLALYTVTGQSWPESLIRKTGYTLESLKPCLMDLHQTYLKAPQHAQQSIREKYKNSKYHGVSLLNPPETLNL
AURKB (human), sequence (Q96GD4 whole entry, looked up): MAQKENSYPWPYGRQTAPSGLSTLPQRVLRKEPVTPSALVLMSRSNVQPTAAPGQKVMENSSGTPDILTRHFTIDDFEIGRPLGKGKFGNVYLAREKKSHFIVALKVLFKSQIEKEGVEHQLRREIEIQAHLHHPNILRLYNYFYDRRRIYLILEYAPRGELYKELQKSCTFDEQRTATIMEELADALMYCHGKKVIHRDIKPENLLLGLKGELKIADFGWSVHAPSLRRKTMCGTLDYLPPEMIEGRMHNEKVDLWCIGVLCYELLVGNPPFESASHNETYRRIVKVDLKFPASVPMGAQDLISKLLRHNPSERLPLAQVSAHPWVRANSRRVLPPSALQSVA
FLT1 (human), sequence (P17948 whole entry, looked up): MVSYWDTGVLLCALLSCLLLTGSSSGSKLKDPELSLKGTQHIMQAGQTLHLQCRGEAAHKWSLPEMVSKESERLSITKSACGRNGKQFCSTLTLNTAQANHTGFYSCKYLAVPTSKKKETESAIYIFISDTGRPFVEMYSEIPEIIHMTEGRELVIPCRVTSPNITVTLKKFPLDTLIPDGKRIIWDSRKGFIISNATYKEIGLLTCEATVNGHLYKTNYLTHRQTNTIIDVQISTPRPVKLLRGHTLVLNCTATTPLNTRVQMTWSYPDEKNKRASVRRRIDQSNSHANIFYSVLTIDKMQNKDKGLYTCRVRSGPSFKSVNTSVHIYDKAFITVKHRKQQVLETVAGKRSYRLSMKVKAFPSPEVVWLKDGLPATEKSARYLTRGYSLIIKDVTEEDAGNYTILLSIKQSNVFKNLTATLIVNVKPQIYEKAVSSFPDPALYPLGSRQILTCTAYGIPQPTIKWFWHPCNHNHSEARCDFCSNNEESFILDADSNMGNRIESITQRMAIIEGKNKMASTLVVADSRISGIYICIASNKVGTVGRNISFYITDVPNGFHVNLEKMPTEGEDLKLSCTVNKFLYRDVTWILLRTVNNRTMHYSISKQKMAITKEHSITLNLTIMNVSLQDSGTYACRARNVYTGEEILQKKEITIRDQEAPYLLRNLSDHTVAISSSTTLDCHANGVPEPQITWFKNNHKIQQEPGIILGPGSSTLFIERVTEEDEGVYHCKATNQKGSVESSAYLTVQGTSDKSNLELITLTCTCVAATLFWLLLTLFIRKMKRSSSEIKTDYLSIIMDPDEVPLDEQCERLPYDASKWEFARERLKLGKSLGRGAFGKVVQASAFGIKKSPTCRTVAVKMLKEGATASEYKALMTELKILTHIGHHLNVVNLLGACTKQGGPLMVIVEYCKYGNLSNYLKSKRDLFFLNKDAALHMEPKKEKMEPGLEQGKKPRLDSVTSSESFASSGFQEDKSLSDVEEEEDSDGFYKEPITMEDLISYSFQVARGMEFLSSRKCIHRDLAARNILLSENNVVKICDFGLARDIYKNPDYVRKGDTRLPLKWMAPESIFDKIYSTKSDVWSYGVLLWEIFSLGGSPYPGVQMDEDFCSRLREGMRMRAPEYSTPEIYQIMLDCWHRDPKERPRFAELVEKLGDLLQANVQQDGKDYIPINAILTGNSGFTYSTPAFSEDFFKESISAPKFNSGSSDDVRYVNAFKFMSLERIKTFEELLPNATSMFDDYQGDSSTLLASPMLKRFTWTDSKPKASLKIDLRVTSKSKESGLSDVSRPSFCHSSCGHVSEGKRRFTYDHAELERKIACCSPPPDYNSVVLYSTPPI
CDK2 CCNE1 (human), sequence (P24864 whole entry, looked up, other chains not shown): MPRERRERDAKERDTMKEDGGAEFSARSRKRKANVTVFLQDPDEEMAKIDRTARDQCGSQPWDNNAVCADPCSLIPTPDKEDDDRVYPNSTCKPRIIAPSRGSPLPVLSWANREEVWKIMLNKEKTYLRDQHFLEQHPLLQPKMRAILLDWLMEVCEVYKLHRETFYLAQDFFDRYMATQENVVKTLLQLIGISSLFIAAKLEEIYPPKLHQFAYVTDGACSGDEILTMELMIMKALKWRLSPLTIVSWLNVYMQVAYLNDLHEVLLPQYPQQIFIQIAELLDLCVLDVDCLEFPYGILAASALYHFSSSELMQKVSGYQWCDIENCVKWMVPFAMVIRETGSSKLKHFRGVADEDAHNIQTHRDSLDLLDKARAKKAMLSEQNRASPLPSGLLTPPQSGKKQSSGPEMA
TSSK1B (human), sequence (Q9BXA7 whole entry, looked up): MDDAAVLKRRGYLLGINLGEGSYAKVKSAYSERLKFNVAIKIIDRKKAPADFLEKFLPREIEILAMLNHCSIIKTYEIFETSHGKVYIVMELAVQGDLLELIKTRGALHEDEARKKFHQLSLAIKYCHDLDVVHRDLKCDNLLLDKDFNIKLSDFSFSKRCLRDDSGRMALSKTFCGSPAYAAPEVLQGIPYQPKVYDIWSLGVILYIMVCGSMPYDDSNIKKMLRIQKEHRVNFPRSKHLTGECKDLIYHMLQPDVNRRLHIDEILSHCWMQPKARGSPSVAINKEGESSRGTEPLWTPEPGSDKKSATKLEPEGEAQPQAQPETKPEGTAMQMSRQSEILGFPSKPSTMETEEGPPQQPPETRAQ
MKNK2 (human), sequence (Q9HBH9 whole entry, looked up): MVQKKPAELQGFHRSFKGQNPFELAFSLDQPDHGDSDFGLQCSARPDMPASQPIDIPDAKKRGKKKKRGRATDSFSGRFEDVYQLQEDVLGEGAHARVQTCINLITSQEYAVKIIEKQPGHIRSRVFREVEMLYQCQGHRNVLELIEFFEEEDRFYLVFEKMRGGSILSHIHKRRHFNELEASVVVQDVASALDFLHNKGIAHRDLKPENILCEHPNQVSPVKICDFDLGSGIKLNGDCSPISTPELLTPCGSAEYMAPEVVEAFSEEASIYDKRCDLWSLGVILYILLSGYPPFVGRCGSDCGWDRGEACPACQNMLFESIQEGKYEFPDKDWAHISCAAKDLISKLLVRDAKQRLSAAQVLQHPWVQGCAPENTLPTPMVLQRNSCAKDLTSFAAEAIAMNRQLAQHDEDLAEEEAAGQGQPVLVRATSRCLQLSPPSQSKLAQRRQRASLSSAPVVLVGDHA

COC(=O)[C@]1(O)C[C@@H]2O[C@@]1(C)n1c3ccccc3c3c4c(c5c6ccccc6n2c5c31)C(=O)NC4
-2%: PIM2 (human) | MARK2 (human)
-4%: HIPK3 (human)
1%: CDK2 CCNA2 (human); compound 1.0 µM
0%: CDK2 CCNA2 (human); compound 10.0 µM | [1] | TSSK2 (human) | STK24 (human) | FYN (human) | FLT1 (human); compound 1.0 µM | FLT1 (human); compound 10.0 µM | CDK2 CCNE1 (human); compound 10.0 µM | MINK1 (human) | FLT3 (human) | PRKD2 (human) | [3] | EPHA1 (human) | LYN (human) | RPS6KA5 KD1 KD2 (human) | [4] | MKNK2 (human); compound 1.0 µM | MKNK2 (human); compound 10.0 µM | AURKB (human); compound 1.0 µM | AURKB (human); compound 10.0 µM | TSSK1B (human); compound 10.0 µM | PAK6 (human); compound 1.0 µM | [5]; compound 1.0 µM | [5]; compound 10.0 µM | IRAK1 (human) | PRKCA (human) | ULK3 (human) | MAP2K7 (human)
-1%: PTK2B (human) | [2] | CDK1 CCNB1 (human) | BTK (human); compound 1.0 µM | BTK (human); compound 10.0 µM | TSSK1B (human); compound 1.0 µM | PAK6 (human); compound 10.0 µM | MELK (human) | MAPK3 (human)
-3%: MAPK1 (human) | DAPK2 (human)
55%: CDK7 CCNH MNAT1 (human); compound 1.0 µM
16%: CDK7 CCNH MNAT1 (human); compound 10.0 µM
6%: CDK2 CCNE1 (human); compound 1.0 µM
